Test [1] has as its system skin cancer cell line, A431. Put plainly: Inhibitory effect on growth of cancer cell line A431, SRB. The class given is cell-based. To be noted: overexpressed EGFR1 (HER-1). In outline: (§1)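 Cells were cultured in DMEM with 10% FBS. Compounds were applied at 10 μM with 10-fold serial dilution to 10^−4, DMSO <1%, for 72 h at 37 °C. Cells were then TCA-fixed and stained with 0.4% SRB, and absorbance was read at 570 nm after solubilisation in 10 mM Tris base.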

The subject of test [2] is breast cancer cell line, SK-Br3. Description: Inhibitory effect on growth of cancer cell line SK-Br3, SRB. The test is classed as cell-based. To be noted: overexpressed EGFR2 (HER-2). In outline:
as §1

For test [3], the target named is EGFR1 (HER-1) (Homo sapiens (Human), UniProt P00533). Description: EGFR1 (HER-1) enzyme assay, fluorescence polarization. The class given is biochemical. The settings on record: 100 μM ATP, poly(Glu, Tyr) substrate.
In test [4] the target is VEGFR2 (KDR) (Homo sapiens (Human), UniProt P35968). Description: VEGFR2 (KDR) enzyme assay, fluorescence polarization. To be noted: 5 μM ATP, poly(Glu, Tyr) substrate. The test is classed as biochemical. Summed up: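 Autophosphorylation read by fluorescence polarization: VEGFR2 (Proquinase) at 200 ng/10 μl with 5 μM ATP and 10 ng/ml poly(Glu,Tyr) 4:1, in 20 mM HEPES pH 7.4, 5 mM MgCl2, 2 mM MnCl2, 50 μM Na3VO4. Reaction 1 h at room temperature, EDTA stop, then anti-phosphotyrosine antibody/tracer for 30 min in the dark.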
VEGFR2 (KDR), sequence (P35968 20-1356): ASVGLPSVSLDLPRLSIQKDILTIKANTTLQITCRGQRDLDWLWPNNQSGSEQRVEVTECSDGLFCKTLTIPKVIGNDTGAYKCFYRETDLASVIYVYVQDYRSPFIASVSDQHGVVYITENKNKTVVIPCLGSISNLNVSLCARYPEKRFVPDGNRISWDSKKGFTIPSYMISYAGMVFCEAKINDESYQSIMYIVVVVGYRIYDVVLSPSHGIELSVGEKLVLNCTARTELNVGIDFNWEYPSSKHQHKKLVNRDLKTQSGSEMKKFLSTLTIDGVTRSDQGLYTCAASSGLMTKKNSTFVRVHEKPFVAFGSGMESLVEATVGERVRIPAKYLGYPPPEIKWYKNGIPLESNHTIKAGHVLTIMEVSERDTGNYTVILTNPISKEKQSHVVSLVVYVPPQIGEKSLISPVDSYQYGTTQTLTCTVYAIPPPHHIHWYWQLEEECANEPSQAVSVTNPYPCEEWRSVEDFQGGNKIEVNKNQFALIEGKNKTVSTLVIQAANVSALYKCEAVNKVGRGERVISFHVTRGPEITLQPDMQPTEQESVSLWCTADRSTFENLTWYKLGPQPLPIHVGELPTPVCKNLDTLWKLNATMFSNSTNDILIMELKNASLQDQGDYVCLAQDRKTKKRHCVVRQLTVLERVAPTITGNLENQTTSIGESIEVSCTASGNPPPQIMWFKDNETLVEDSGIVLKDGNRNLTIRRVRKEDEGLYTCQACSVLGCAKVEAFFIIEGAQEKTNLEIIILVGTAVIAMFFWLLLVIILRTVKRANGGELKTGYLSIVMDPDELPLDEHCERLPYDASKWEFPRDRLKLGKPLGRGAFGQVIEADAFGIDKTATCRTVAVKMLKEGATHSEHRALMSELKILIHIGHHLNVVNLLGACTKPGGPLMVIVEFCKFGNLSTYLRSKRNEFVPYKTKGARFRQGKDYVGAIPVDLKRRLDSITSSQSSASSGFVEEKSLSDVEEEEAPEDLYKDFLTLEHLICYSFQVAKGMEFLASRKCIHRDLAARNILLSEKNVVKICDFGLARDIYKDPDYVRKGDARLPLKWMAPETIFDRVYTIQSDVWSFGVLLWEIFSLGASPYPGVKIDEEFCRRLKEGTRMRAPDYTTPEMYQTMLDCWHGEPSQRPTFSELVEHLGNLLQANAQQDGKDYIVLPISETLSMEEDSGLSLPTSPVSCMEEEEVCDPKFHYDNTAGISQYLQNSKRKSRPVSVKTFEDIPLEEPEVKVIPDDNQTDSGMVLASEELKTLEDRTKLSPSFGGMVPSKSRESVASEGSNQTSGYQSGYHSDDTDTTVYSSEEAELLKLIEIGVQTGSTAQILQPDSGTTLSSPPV
For orientation: Polarisation of emitted light reports the rotation of a fluorescent probe.

For test [5], the system named is Human Umbilical Vein Endothelial Cell (HUVEC). Description: Inhibitory effect on growth of human umbilical vein endothelial cell (HUVEC), MTS. The test is classed as cell-based. The settings on record: 10 ng/ml VEGF, absorbance 490 nm.
Test [6] concerns colon and rectal cancer cell line, SW-620. Put plainly: Inhibitory effect on growth of cancer cell line SW-620, SRB. The class given is cell-based. The settings on record: not having overexpressed EGFR and EGFR2. Summed up: as §1

For `C=CC(=O)Nc1cc2c(Nc3ccc(Br)cc3F)ncnc2cc1OCCNC(=O)CN(C)CC` [Example 56, N-(4-(4-bromo-2-fluoro-phenylamino)-7-{2-[2-(ethyl-methyl-amino)-acetylamino]-ethoxy}-quinazolin-6-yl)-acrylamide], the half-maximal inhibitory concentration (IC50) (in general, the concentration at which inhibition is half-maximal) in test [1] (Homo sapiens, A-431, 72 h) stood at 153 nM; in test [2] (Homo sapiens, SK-BR-3, 72 h) it was 128 nM; in test [3] it was 198 nM; in test [4] it was 654 nM; in test [5] (Homo sapiens, 96 h), 691 nM; in test [6] (Homo sapiens, 72 h), 10000 nM.
Take `C=CC(=O)Nc1cc2c(Nc3cc(OC)c(Cl)cc3OC)ncnc2cc1OCCNC(C)=O` [Example 172, N-[7-(2-acetylamino-ethoxy)-4-(4-chloro-2,5-dimethoxy-phenylamino)-quinazolin-6-yl]-acrylamide]: the IC50 in test [1] (Homo sapiens, A-431, 72 h) came out at 91 nM; in test [2] (Homo sapiens, SK-BR-3, 72 h), 3300 nM; in test [3], 87 nM; in test [4], 90 nM; in test [5] (Homo sapiens, 96 h), 125 nM; in test [6] (Homo sapiens, 72 h), 10000 nM.
With `C=CC(=O)Nc1cc2c(Nc3ccc(Br)cc3F)ncnc2cc1OCCNC(=O)NC(C)CC` (stereo not drawn) [Example 38, N-{4-(4-bromo-2-fluoro-phenylamino)-7-[2-(3-sec-butyl-ureido)-ethoxy]-quinazolin-6-yl}-acrylamide], the IC50 in test [1] (Homo sapiens, A-431, 72 h) came to 21 nM; in test [2] (Homo sapiens, SK-BR-3, 72 h) it was 245 nM; in test [3] it was 20 nM; in test [4] it was 324 nM; in test [5] (Homo sapiens, 96 h) it was 367 nM; in test [6] (Homo sapiens, 72 h), 2580 nM.
As for `C=CC(=O)Nc1cc2c(Nc3ccc(Br)cc3F)ncnc2cc1OCC(C)NC(=O)CC` (stereo not drawn) [Example 84, N-[4-(4-bromo-2-fluoro-phenylamino)-7-(2-propionylamino-propoxy)-quinazolin-6-yl]-acrylamide], the IC50 turned out to be 34 nM in test [1] (Homo sapiens, A-431, 72 h); 71 nM in test [2] (Homo sapiens, SK-BR-3, 72 h); 26 nM in test [3]; 94 nM in test [4]; 113 nM in test [5] (Homo sapiens, 96 h); 10000 nM in test [6] (Homo sapiens, 72 h).
As to `C=CC(=O)Nc1cc2c(Nc3ccc(Br)c(Cl)c3F)ncnc2cc1OCCNC(C)=O` [Example 141, N-[7-(2-acetylamino-ethoxy)-4-(4-bromo-3-chloro-2-fluoro-phenylamino)-quinazolin-6-yl]-acrylamide], the half-maximal inhibitory concentration (IC50) was 12 nM in test [1] (Homo sapiens, A-431, 72 h); 37 nM in test [2] (Homo sapiens, SK-BR-3, 72 h); 13 nM in test [3]; 56 nM in test [4]; 66 nM in test [5] (Homo sapiens, 96 h); 10000 nM in test [6] (Homo sapiens, 72 h).
For the molecule `C=CC(=O)Nc1cc2c(Nc3ccc(Br)cc3F)ncnc2cc1OCCNC(=O)NC(C)C` [Example 37, N-{4-(4-bromo-2-fluoro-phenylamino)-7-[2-(3-isopropyl-ureido)-ethoxy]-quinazolin-6-yl}-acrylamide], the IC50 turned out to be 31 nM in test [1] (Homo sapiens, A-431, 72 h); 65 nM in test [2] (Homo sapiens, SK-BR-3, 72 h); 36 nM in test [3]; 895 nM in test [4]; 682 nM in test [5] (Homo sapiens, 96 h); 4540 nM in test [6] (Homo sapiens, 72 h).
Take `C=CC(=O)Nc1cc2c(Nc3ccc(Cl)nc3)ncnc2cc1OCCNC(C)=O` [Example 128, N-[7-(2-acetylamino-ethoxy)-4-(6-chloro-pyridin-3-ylamino)-quinazolin-6-yl]-acrylamide]: the IC50 was 68 nM in test [1] (Homo sapiens, A-431, 72 h); 95 nM in test [2] (Homo sapiens, SK-BR-3, 72 h); 65 nM in test [3]; 823 nM in test [4]; 945 nM in test [5] (Homo sapiens, 96 h); 10000 nM in test [6] (Homo sapiens, 72 h).
`C=CC(=O)Nc1cc2c(Nc3ccc(Br)c(Cl)c3F)ncnc2cc1OCC(C)NC(=O)CN(C)C` (stereo not drawn) [Example 157]: the IC50 in test [1] (72 hours) came out at 95 nM; in test [2] (72 hours) it was 165 nM; in test [3], 88 nM; in test [4] it was 687 nM; in test [5] (96 hours) it was 752 nM; in test [6] (72 hours), 8360 nM.
For “N-{2-[6-acryloylamino-4-(4-bromo-2-fluoro-phenylamino)-quinazolin-7-yloxy]-ethyl}-butylamide [Example 51]”, the IC50 in test [1] (72 hours) was 33 nM; in test [2] (72 hours), 194 nM; in test [3], 32 nM; in test [4], 954 nM; in test [5] (96 hours), 987 nM; in test [6] (72 hours), 10000 nM.
For the molecule “N-{2-[6-acryloylamino-4-(4-bromo-2-fluoro-phenylamino)-quinazolin-7-yloxy]-ethyl}-malonic acid [Example 70]”, the half-maximal inhibitory concentration (IC50) amounted to 973 nM in test [1] (72 hours); 10000 nM in test [2] (72 hours); 956 nM in test [3]; 279 nM in test [4]; 365 nM in test [5] (96 hours); 9570 nM in test [6] (72 hours).
In the case of `C=CC(=O)Nc1cc2c(Nc3ccc(Br)cc3F)ncnc2cc1OCC1CNC(=O)O1` (stereo not drawn) [Example 91, N-[4-(4-bromo-2-fluoro-phenylamino)-7-(2-oxo-oxazolidin-5-ylmethoxy)-quinazolin-6-yl]-acrylamide], the IC50 in test [1] (Homo sapiens, A-431, 72 h) was determined as 15 nM; in test [2] (Homo sapiens, SK-BR-3, 72 h) it was 335 nM; in test [3] it was 17 nM; in test [4], 587 nM; in test [5] (Homo sapiens, 96 h), 696 nM; in test [6] (Homo sapiens, 72 h), 2790 nM.
On to `C=CC(=O)Nc1cc2c(Nc3ccc(Br)cc3F)ncnc2cc1OCCNC(=O)CCN(C)C` [Example 61, N-{4-(4-bromo-2-fluoro-phenylamino)-7-[2-(3-dimethylamino-propionylamino)-ethoxy]-quinazolin-6-yl}-acrylamide], for which the IC50 in test [1] (Homo sapiens, A-431, 72 h) amounted to 6 nM; in test [2] (Homo sapiens, SK-BR-3, 72 h), 59 nM; in test [3] it was 9 nM; in test [4], 354 nM; in test [5] (Homo sapiens, 96 h) it was 384 nM; in test [6] (Homo sapiens, 72 h), 10000 nM.
Turning to `C=CC(=O)Nc1cc2c(Nc3cc(F)c(Br)cc3F)ncnc2cc1OCCNC(C)=O` [Example 119, N-[7-(2-acetylamino-ethoxy)-4-(4-bromo-2,5-difluoro-phenylamino)-quinazolin-6-yl]-acrylamide], the IC50 was 14 nM in test [1] (Homo sapiens, A-431, 72 h); 178 nM in test [2] (Homo sapiens, SK-BR-3, 72 h); 12 nM in test [3]; 782 nM in test [4]; 921 nM in test [5] (Homo sapiens, 96 h); 2890 nM in test [6] (Homo sapiens, 72 h).
As to `C=CC(=O)Nc1cc2c(Nc3ccc(Br)cc3F)ncnc2cc1OCCCNC(=O)CC` [Example 87, N-[4-(4-bromo-2-fluoro-phenylamino)-7-(3-propionylamino-propoxy)-quinazolin-6-yl]-acrylamide], the IC50 was determined as 44 nM in test [1] (Homo sapiens, A-431, 72 h); 288 nM in test [2] (Homo sapiens, SK-BR-3, 72 h); 40 nM in test [3]; 698 nM in test [4]; 692 nM in test [5] (Homo sapiens, 96 h); 10000 nM in test [6] (Homo sapiens, 72 h).
As for `C=CC(=O)Nc1cc2c(Nc3ccc(Cl)cc3F)ncnc2cc1OCCNC(=O)CN(C)C` [Example 116, N-{4-(4-chloro-2-fluoro-phenylamino)-7-[2-(2-dimethylamino-acetylamino)-ethoxy]-quinazolin-6-yl}-acrylamide], the IC50 in test [1] (Homo sapiens, A-431, 72 h) was determined as 437 nM; in test [2] (Homo sapiens, SK-BR-3, 72 h) it was 253 nM; in test [3], 419 nM; in test [4] it was 758 nM; in test [5] (Homo sapiens, 96 h), 951 nM; in test [6] (Homo sapiens, 72 h), 2960 nM.
As for `C=CC(=O)NCCOc1cc2ncnc(Nc3ccc(Br)cc3F)c2cc1NC(=O)C=C` [Example 26, N-{2-[6-acryloylamino-4-(4-bromo-2-fluoro-phenylamino)-quinazolin-7-yloxy]-ethyl}-acrylamide], the IC50 in test [1] (Homo sapiens, A-431, 72 h) is 49 nM; in test [2] (Homo sapiens, SK-BR-3, 72 h), 80 nM; in test [3], 5 nM; in test [4], 250 nM; in test [5] (Homo sapiens, 96 h), 87 nM; in test [6] (Homo sapiens, 72 h) it was 10000 nM.
As to `C=CC(=O)Nc1cc2c(Nc3ccc(Br)cc3F)ncnc2cc1OCCNC(=O)C(=O)OCC` [Example 71, {2-[6-acryloylamino-4-(4-bromo-2-fluoro-phenylamino)-quinazolin-7-yloxy]-ethyl}-oxalamic acid ethylester], the half-maximal inhibitory concentration (IC50) was found to be 100 nM in test [1] (Homo sapiens, A-431, 72 h); 4400 nM in test [2] (Homo sapiens, SK-BR-3, 72 h); 98 nM in test [3]; 251 nM in test [4]; 286 nM in test [5] (Homo sapiens, 96 h); 2980 nM in test [6] (Homo sapiens, 72 h).
In the case of `C=CC(=O)Nc1cc2c(Nc3ccc(Br)cc3F)ncnc2cc1OCCCNC(C)=O` [Example 13, N-[7-(3-acetylamino-propoxy)-4-(4-bromo-2-fluoro-phenylamino)-quinazolin-6-yl]-acrylamide], the IC50 in test [1] (Homo sapiens, A-431, 72 h) was 28 nM; in test [2] (Homo sapiens, SK-BR-3, 72 h) it was 45 nM; in test [3], 4 nM; in test [4] it was 157 nM; in test [5] (Homo sapiens, 96 h) it was 79 nM; in test [6] (Homo sapiens, 72 h), 10000 nM.
With `C=CC(=O)Nc1cc2c(Nc3ccc(Br)cc3F)ncnc2cc1OC[C@H](C)NC(C)=O` [Example 83, (S)—N-[7-(2-acetylamino-propoxy)-4-(4-bromo-2-fluoro-phenylamino)-quinazolin-6-yl]-acrylamide], the IC50 in test [1] (Homo sapiens, A-431, 72 h) was 113 nM; in test [2] (Homo sapiens, SK-BR-3, 72 h), 933 nM; in test [3], 98 nM; in test [4], 71 nM; in test [5] (Homo sapiens, 96 h), 106 nM; in test [6] (Homo sapiens, 72 h), 2870 nM.

The values are drawn from patent publication US8846699B2, “Quinazoline derivatives as a multiplex inhibitor and method for the preparation thereof” (Hanmi Pharm. Co., Ltd., priority 2005, dated 2014).
